The target in series [1] is T1, human OAT3 (Homo sapiens, UniProt Q8TCC7).
T1 sequence (Q8TCC7 1-542): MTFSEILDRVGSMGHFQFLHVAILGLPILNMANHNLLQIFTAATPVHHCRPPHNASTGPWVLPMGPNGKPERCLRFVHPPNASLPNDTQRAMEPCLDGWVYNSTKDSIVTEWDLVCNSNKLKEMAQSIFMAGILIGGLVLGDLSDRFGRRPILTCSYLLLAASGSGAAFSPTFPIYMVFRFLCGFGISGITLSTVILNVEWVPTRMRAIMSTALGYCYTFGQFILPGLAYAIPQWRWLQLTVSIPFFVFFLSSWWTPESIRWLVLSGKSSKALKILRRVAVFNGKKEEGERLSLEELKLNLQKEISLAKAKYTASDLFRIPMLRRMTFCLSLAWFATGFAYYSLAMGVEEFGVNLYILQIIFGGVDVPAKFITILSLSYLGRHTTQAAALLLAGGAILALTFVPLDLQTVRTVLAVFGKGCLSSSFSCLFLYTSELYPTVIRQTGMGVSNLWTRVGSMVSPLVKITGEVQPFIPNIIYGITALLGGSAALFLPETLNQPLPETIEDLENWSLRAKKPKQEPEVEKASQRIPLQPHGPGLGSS
Briefly: Enalaprilat uptake kinetics in HEK293 cells overexpressing human OAT3. To be noted: OAT3-transfected HEK293, net uptake (mock subtracted), enalaprilat 0-500 μM, 5 min incubation. The series is classed as in vitro ADME. On the set-up: expressed in transfected cells; gift of Prof; Dafang Zhong, Shanghai Institute of Materia Medica. The protocol: (§1) Human embryonic kidney 293 (HEK293) cells stably overexpressing human OAT1, OAT3, organic cation transporter 2 (OCT2), OATP1B1, OATP1B3 or OATP2B1 as well as empty vectors were generously provided by Professor Dafang Zhong, Shanghai Institute of Materia Medica, Chinese Academy of Sciences (Shanghai, China). Respective transport activities had been validated using specific probe substrates ([Zhong et al., 2014]). All cells were grown in DMEM supplemented with 10% FBS, at 37°C with 5% CO2 and 95% humidity.
(§2) Cells were seeded in 24-well plates at a density of 200,000 cells per well and cultured in high glucose DMEM for 48 h. On the third day and prior to the start of the uptake experiment, cells were washed thrice with pre-warmed HBSS and then incubated with HBSS for 30 min at 37°C. […] Incubations were terminated 5 min after the addition of substrate by washing with ice-cold HBSS. Cells were immediately lysed with 200 μl ultrapure water by repeated freezing and thawing up to three times. Intracellular drug concentrations were determined using a liquid chromatography - tandem mass spectrometry (LC-MS/MS) method. Cellular protein levels were estimated using the Bicinchoninine acid assay per manufacturer’s instruction (Takara, Japan).
(§3) Kinetic parameters of transporter-mediated uptake were estimated by nonlinear regression analysis using GraphPad Prism 5.01 (La Jolla, CA, USA). […]

The conditions of series [2]: after oral administration of enalapril; ref Ulm et al., 1982; MacFadyen et al., 1993; cited from earlier work.
For series [3], the target named is T2, human OATP2B1 (Homo sapiens, UniProt O94956).
T2 construct: expressed in transfected cells; gift of Prof; Dafang Zhong, Shanghai Institute of Materia Medica
T2 sequence (O94956 1-709): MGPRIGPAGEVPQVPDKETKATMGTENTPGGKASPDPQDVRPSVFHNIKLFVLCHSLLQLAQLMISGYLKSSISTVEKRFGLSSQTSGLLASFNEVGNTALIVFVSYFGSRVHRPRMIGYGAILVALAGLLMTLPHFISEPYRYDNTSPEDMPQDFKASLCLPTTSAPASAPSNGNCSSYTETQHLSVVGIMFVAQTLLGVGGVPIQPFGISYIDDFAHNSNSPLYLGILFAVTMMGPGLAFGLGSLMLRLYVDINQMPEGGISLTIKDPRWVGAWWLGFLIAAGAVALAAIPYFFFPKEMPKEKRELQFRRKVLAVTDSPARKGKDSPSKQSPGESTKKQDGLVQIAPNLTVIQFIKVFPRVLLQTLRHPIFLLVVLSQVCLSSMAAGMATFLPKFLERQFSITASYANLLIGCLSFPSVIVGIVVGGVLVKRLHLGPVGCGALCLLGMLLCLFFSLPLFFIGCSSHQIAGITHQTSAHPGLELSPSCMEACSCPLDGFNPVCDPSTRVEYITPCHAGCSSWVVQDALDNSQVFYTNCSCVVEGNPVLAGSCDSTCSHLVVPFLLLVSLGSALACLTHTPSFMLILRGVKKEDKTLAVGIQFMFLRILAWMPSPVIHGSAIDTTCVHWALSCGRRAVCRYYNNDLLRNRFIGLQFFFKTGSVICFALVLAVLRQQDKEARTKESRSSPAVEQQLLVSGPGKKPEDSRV
The series can be described thus: Enalaprilat uptake kinetics in HEK293 cells overexpressing human OATP2B1. To be noted: OATP2B1-transfected HEK293, net uptake (mock subtracted), enalaprilat 0-500 μM, 5 min incubation. It counts as in vitro ADME. The protocol:
as §1, §2, §3

Series [4] addresses T3, human OAT1 (Homo sapiens, UniProt Q4U2R8).
T3 construct: expressed in transfected cells; gift of Prof; Dafang Zhong, Shanghai Institute of Materia Medica
T3 sequence (Q4U2R8 1-563): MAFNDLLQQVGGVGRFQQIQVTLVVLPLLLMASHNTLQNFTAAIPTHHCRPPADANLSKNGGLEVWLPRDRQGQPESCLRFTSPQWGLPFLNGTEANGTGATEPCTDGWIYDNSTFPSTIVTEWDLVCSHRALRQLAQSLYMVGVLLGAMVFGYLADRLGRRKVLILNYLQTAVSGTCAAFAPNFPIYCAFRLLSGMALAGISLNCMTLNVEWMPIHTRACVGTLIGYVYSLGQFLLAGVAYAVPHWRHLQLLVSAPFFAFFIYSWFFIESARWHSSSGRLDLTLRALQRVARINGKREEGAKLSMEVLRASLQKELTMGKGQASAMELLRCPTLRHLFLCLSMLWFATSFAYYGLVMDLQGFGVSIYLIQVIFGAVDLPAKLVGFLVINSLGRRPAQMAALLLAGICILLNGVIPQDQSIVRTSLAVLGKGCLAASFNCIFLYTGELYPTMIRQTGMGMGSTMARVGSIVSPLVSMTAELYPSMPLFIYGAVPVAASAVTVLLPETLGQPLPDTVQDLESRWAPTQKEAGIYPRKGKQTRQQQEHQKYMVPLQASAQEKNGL
The series can be described thus: Enalaprilat uptake kinetics in HEK293 cells overexpressing human OAT1. It counts as in vitro ADME. To be noted: OAT1-transfected HEK293, net uptake (mock subtracted), enalaprilat 0-500 μM, 5 min incubation. How it is done:
as §1, §2, §3

Take `C[C@H](N[C@@H](CCc1ccccc1)C(=O)O)C(=O)N1CCC[C@H]1C(=O)O` [Enalaprilat]: the Vmax amounted to 87.4 ± 1.1 nmol/min/mg protein in series [1], 20.1 ± 2.7 nmol/min/mg protein in series [3] and 42.4 ± 1.3 nmol/min/mg protein in series [4]. The “Excreted into the urine, % of the dose” value in series [2] is 43 % of the dose.

The record behind these values is publication PMC7271668 (Frontiers in Pharmacology, 2020).
